Assay: Solubility in oil (sesame oil, benzyl benzoate), visual observation
Details: oil or lipid, thermodynamic from solid

Row | SMILES | solubility (benzyl benzoate) [mg/mL] | solubility (sesame oil) [mg/mL]
1 | O=C(NCc1ccccc1)OCn1c(=O)ccc2ccc(OCCCCN3CCN(c4cccc5sccc45)CC3)cc21 [Example 62, N-benzylcarbamic acid 7-[4-(4-benzo[b]thiophen-4-ylpiperazin-1-yl)butoxy]-2-oxo-2H-quinolin-1-ylmethyl ester] | > 100 | –
2 | COCCNC(=O)OCn1c(=O)ccc2ccc(OCCCCN3CCN(c4cccc5sccc45)CC3)cc21 [Example 109, N-(2-methoxyethyl)carbamic acid 7-[4-(4-benzo[b]thiophen-4-ylpiperazin-1-yl)butoxy]-2-oxo-2H-quinolin-1-ylmethyl ester] | > 100 | –
3 | CCCCCCCC(=O)OCn1c(=O)ccc2ccc(OCCCCN3CCN(c4cccc5sccc45)CC3)cc21 [Example 30, octanoic acid 7-[4-(4-benzo[b]thiophen-4-ylpiperazin-1-yl)butoxy]-2-oxo-2H-quinolin-1-ylmethyl ester] | > 100 | –
4 | CCOC(=O)OCn1c(=O)ccc2ccc(OCCCCN3CCN(c4cccc5sccc45)CC3)cc21 [Example 50, carbonic acid 7-[4-(4-benzo[b]thiophen-4-ylpiperazin-1-yl)butoxy]-2-oxo-2H-quinolin-1-ylmethyl ester ethyl ester] | > 100 | –
5 | O=C(OCN1C(=O)CCc2ccc(OCCCCN3CCN(c4cccc5sccc45)CC3)cc21)OCC(F)(F)F [Example 147, carbonic acid 7-[4-(4-benzo[b]thiophen-4-ylpiperazin-1-yl)butoxy]-2-oxo-3,4-dihydro-2H-quinolin-1-ylmethyl ester 2,2,2-trifluoro-ethyl ester] | > 100 | –
6 | CCCCCCCCOC(=O)OCN1C(=O)CCc2ccc(OCCCCN3CCN(c4cccc5sccc45)CC3)cc21 [Example 149, carbonic acid 7-[4-(4-benzo[b]thiophen-4-ylpiperazin-1-yl)butoxy]-2-oxo-3,4-dihydro-2H-quinolin-1-ylmethyl ester octyl ester] | > 100 | > 100
7 | CCCCCCCCCCCCCCCCCC(=O)OCn1c(=O)ccc2ccc(OCCCCN3CCN(c4cccc5sccc45)CC3)cc21 [Example 60, octadecanoic acid 7-[4-(4-benzo[b]thiophen-4-ylpiperazin-1-yl)butoxy]-2-oxo-2H-quinolin-1-ylmethyl ester] | > 100 | > 100
8 | O=C(OCn1c(=O)ccc2ccc(OCCCCN3CCN(c4cccc5sccc45)CC3)cc21)OC1CCCCC1 [Example 146, carbonic acid 7-[4-(4-benzo[b]thiophen-4-ylpiperazin-1-yl)butoxy]-2-oxo-2H-quinolin-1-ylmethyl ester cyclohexyl ester] | > 100 | –
9 | CCCC(C)C(=O)OCN1C(=O)CCc2ccc(OCCCCN3CCN(c4cccc5sccc45)CC3)cc21 (centres unmarked) [Example 81, 2-methylpentanoic acid 7-[4-(4-benzo[b]thiophen-4-ylpiperazin-1-yl)butoxy]-2-oxo-3,4-dihydro-2H-quinolin-1-ylmethyl ester] | > 100 | –
10 | CONC(=O)OCn1c(=O)ccc2ccc(OCCCCN3CCN(c4cccc5sccc45)CC3)cc21 [Example 129, N-methoxycarbamic acid (7-{4-[4-(benzo[b]thiophen-4-yl)piperazin-1-yl]butoxy}-2-oxo-2H-quinolin-1-yl)methyl] | > 100 | –
11 | CCCCCC(CCCCC)C(=O)OCN1C(=O)CCc2ccc(OCCCCN3CCN(c4cccc5sccc45)CC3)cc21 [Example 40, 2-pentylheptanoic acid 7-[4-(4-benzo[b]thiophen-4-ylpiperazin-1-yl)butoxy]-2-oxo-3,4-dihydro-2H-quinolin-1-ylmethyl ester] | > 100 | –
12 | CCCCNC(=O)OCn1c(=O)ccc2ccc(OCCCCN3CCN(c4cccc5sccc45)CC3)cc21 [Example 35, N-butylcarbamic acid 7-[4-(4-benzo[b]thiophen-4-ylpiperazin-1-yl)butoxy]-2-oxo-2H-quinolin-1-ylmethyl ester] | > 100 | –
13 | CN(C)C(=O)OCN1C(=O)CCc2ccc(OCCCCN3CCN(c4cccc5sccc45)CC3)cc21 [Example 47, N,N-dimethylcarbamic acid 7-[4-(4-benzo[b]thiophen-4-ylpiperazin-1-yl)butoxy]-2-oxo-3,4-dihydro-2H-quinolin-1-ylmethyl ester] | > 100 | –
14 | O=C(NCC1CCCCC1)OCN1C(=O)CCc2ccc(OCCCCN3CCN(c4cccc5sccc45)CC3)cc21 [Example 29, N-cyclohexylmethylcarbamic acid 7-[4-(4-benzo[b]thiophen-4-ylpiperazin-1-yl)butoxy]-2-oxo-3,4-dihydro-2H-quinolin-1-ylmethyl ester] | > 100 | –
15 | O=C(OCN1C(=O)CCc2ccc(OCCCCN3CCN(c4cccc5sccc45)CC3)cc21)c1ccccc1 [Example 11, benzoic acid 7-[4-(4-benzo[b]thiophen-4-ylpiperazin-1-yl)butoxy]-2-oxo-3,4-dihydro-2H-quinolin-1-ylmethyl ester] | > 100 | –
16 | CCCCCCCCCCCCCCCCC(=O)OCN1C(=O)CCc2ccc(OCCCCN3CCN(c4cccc5sccc45)CC3)cc21 [Example 95, heptadecanoic acid 7-[4-(4-benzo[b]thiophen-4-ylpiperazin-1-yl)butoxy]-2-oxo-3,4-dihydro-2H-quinolin-1-ylmethyl ester] | > 100 | –

Row | SMILES | solubility (benzyl benzoate) [mg/mL] | solubility (sesame oil) [mg/mL]
17 | O=C(OCn1c(=O)ccc2ccc(OCCCCN3CCN(c4cccc5sccc45)CC3)cc21)C1CCCC1 [Example 37, cyclopentanecarboxylic acid 7-[4-(4-benzo[b]thiophen-4-ylpiperazin-1-yl)butoxy]-2-oxo-2H-quinolin-1-ylmethyl ester] | > 100 | –
18 | O=C(NC1CCCCC1)OCN1C(=O)CCc2ccc(OCCCCN3CCN(c4cccc5sccc45)CC3)cc21 [Example 83, N-cyclohexylcarbamic acid 7-[4-(4-benzo[b]thiophen-4-ylpiperazin-1-yl)butoxy]-2-oxo-3,4-dihydro-2H-quinolin-1-ylmethyl ester] | > 100 | –
19 | COC(=O)CN(C)C(=O)OCN1C(=O)CCc2ccc(OCCCCN3CCN(c4cccc5sccc45)CC3)cc21 [Example 90, ({7-[4-(4-benzo[b]thiophen-4-ylpiperazin-1-yl)butoxy]-2-oxo-3,4-dihydro-2H-quinolin-1-ylmethoxycarbonyl}methylamino)acetic acid methyl ester] | > 100 | –
20 | O=C(OCn1c(=O)ccc2ccc(OCCCCN3CCN(c4cccc5sccc45)CC3)cc21)N1CCC(F)(F)CC1 [Example 123, 4,4-difluoropiperidine-1-carboxylic acid 7-[4-(4-benzo[b]thiophen-4-ylpiperazin-1-yl)butoxy]-2-oxo-2H-quinolin-1-ylmethyl ester] | > 100 | –
21 | COCCNC(=O)OCN1C(=O)CCc2ccc(OCCCCN3CCN(c4cccc5sccc45)CC3)cc21 [Example 97, N-(2-methoxyethyl)carbamic acid 7-[4-(4-benzo[b]thiophen-4-ylpiperazin-1-yl)butoxy]-2-oxo-3,4-dihydro-2H-quinolin-1-ylmethyl ester] | > 100 | –
22 | CCCCCCCCCCCC(=O)OCN1C(=O)CC(C)(C)c2ccc(OCCCCN3CCN(c4cccc5sccc45)CC3)cc21 [Example 154, dodecanoic acid 7-[4-(4-benzo[b]thiophen-4-ylpiperazin-1-yl)butoxy]-4,4-dimethyl-2-oxo-3,4-dihydro-2H-quinolin-1-ylmethyl ester] | > 100 | > 100
23 | CC(=O)OCN1C(=O)CCc2ccc(OCCCCN3CCN(c4cccc5sccc45)CC3)cc21 [Example 85, acetic acid 7-[4-(4-benzo[b]thiophen-4-ylpiperazin-1-yl)butoxy]-2-oxo-3,4-dihydro-2H-quinolin-1-ylmethyl ester] | > 100 | –
24 | O=C(OC/C=C/c1ccccc1)OCn1c(=O)ccc2ccc(OCCCCN3CCN(c4cccc5sccc45)CC3)cc21 [Example 140, carbonic acid 7-[4-(4-benzo[b]thiophen-4-ylpiperazin-1-yl)butoxy]-2-oxo-2H-quinolin-1-ylmethyl ester (E)-3-phenyl-allyl ester] | > 100 | –
25 | O=C(NOCc1ccccc1)OCN1C(=O)CCc2ccc(OCCCCN3CCN(c4cccc5sccc45)CC3)cc21 [Example 107, benzyloxycarbamic acid 7-[4-(4-benzo[b]thiophen-4-ylpiperazin-1-yl)butoxy]-2-oxo-3,4-dihydro-2H-quinolin-1-ylmethyl ester] | > 100 | –
26 | CCOC(=O)CCNC(=O)OCn1c(=O)ccc2ccc(OCCCCN3CCN(c4cccc5sccc45)CC3)cc21 [Example 99, 3-{7-[4-(4-benzo[b]thiophen-4-ylpiperazin-1-yl)butoxy]-2-oxo-2H-quinolin-1-ylmethoxycarbonylamino}-propionic acid ethyl ester] | > 100 | –
27 | CCCCCCCC(=O)OCN1C(=O)CCc2ccc(OCCCCN3CCN(c4cccc5sccc45)CC3)cc21 [Example 24, octanoic acid 7-[4-(4-benzo[b]thiophen-4-ylpiperazin-1-yl)butoxy]-2-oxo-3,4-dihydro-2H-quinolin-1-ylmethyl ester] | > 100 | –
28 | CC(C)(C)OC(=O)CC(=O)OCn1c(=O)ccc2ccc(OCCCCN3CCN(c4cccc5sccc45)CC3)cc21 [Example 148, malonic acid 7-[4-(4-benzo[b]thiophen-4-ylpiperazin-1-yl)butoxy]-2-oxo-2H-quinolin-1-ylmethyl ester tert-butyl ester] | > 100 | –
29 | O=C(Oc1ccc2ccc(OCCCCN3CCN(c4cccc5sccc45)CC3)cc2n1)C1CCCCC1 [Example 380, 7-[4-(4-benzo[b]thiophen-4-yl-piperazin-1-yl)-butoxy]-quinolin-2-yl cyclohexanecarboxylate] | > 100 | > 100
30 | O=C(NCc1ccccc1)OCN1C(=O)CCc2ccc(OCCCCN3CCN(c4cccc5sccc45)CC3)cc21 [Example 80, N-benzylcarbamic acid 7-[4-(4-benzo[b]thiophen-4-ylpiperazin-1-yl)butoxy]-2-oxo-3,4-dihydro-2H-quinolin-1-ylmethyl ester] | > 100 | –
31 | CC(C)NC(=O)OCn1c(=O)ccc2ccc(OCCCCN3CCN(c4cccc5sccc45)CC3)cc21 [Example 117, N-isopropyl-carbamic acid 7-[4-(4-benzo[b]thiophen-4-ylpiperazin-1-yl)butoxy]-2-oxo-2H-quinolin-1-ylmethyl ester] | > 100 | –

From patent US9539252B2, “Piperazine-substituted benzothiophene derivatives as antipsychotic agents” (OTSUKA PHARMACEUTICAL CO., LTD., priority 2011, dated 2017)
